Assay results: ChEMBL document CHEMBL5584293, “Discovery and evaluation of novel spiroheterocyclic protective agents via a SIRT1 upregulation mechanism in cisplatin-induced premature ovarian failure” (Bioorg Med Chem, 2024)
Active and inactive are the calls of the source. The calls are words filed in the database; no cut-off is given here.

Experiments:
KGN [1] = assay: Protective effect against cisplatin-induced injury in human KGN cells assessed as cell survival rate at 5 uM incubated for 48 hrs by MTT assay (Rvb ~ 60 %); assay type: functional; conditions: read-out: Survival
KGN [2] = assay: Protective effect against cisplatin-induced injury in human KGN cells assessed as cell survival at 25 to 50 uM incubated for 48 hrs by MTT assay; assay type: functional, cell-based; conditions: dose 25-50 µM
KGN [3] = assay: Protective effect against cisplatin-induced injury in human KGN cells assessed as cell survival at 5 uM incubated for 48 hrs by MTT assay; assay type: functional, cell-based
NRK = assay: Cytotoxicity against rat NRK cells assessed as cell viability at 50 uM incubated for 48 hrs by MTT assay; assay type: toxicity, cell-based
[4] = Cytotoxicity against human MIHA cells assessed as cell viability at 50 uM incubated for 48 hrs by MTT assay; assay type: toxicity, cell-based
[5] = Cytotoxicity against human PDL cells assessed as cell viability at 50 uM incubated for 48 hrs by MTT assay; assay type: toxicity, cell-based
[6] = Cytotoxicity against rat NRK cells assessed as cell survival rate at 50 uM incubated for 48 hrs by MTT assay relative to control; assay type: toxicity, cell-based; conditions: read-out: Survival
[7] = Cytotoxicity against human PDL cells assessed as cell survival rate at 50 uM incubated for 48 hrs by MTT assay relative to control; assay type: toxicity, cell-based; conditions: read-out: Survival
[8] = Cytotoxicity against human MIHA cells assessed as cell survival rate at 50 uM incubated for 48 hrs by MTT assay relative to control; assay type: toxicity, cell-based; conditions: read-out: Survival

Compound | Activity (KGN [2]) | Activity (KGN [3]) | Activity (NRK) | Activity [4] | Activity [5] | further results
CC1N[C@@]2(C(=O)c3cccc4cccc2c34)[C@@]2(CCC/C(=C\c3ccccc3)C2=O)[C@H]1c1ccccc1 (stereo partly drawn) |  |  |  |  |  | viability at 5 µM (KGN [1]): 75.3%
CC1N[C@@]2(C(=O)c3cccc4cccc2c34)[C@@]2(CCC/C(=C\c3ccccc3F)C2=O)[C@H]1c1ccccc1F (stereo partly drawn) | Active | Active |  |  |  | 
CN1C[C@H](c2ccccc2)[C@]2(CCC/C(=C\c3ccccc3)C2=O)[C@]12C(=O)Nc1ccc(Cl)cc12 |  |  | Non-Toxic | Non-Toxic | Non-Toxic | 
CN1C[C@H](c2ccccc2)[C@]2(COC/C(=C\c3ccccc3)C2=O)[C@]12C(=O)Nc1ccccc12 |  |  | Non-Toxic | Non-Toxic | Non-Toxic | 
CN1C[C@H](c2ccccc2)[C@H](C(=O)/C=C/c2ccccc2)[C@]12C(=O)Nc1ccccc12 |  |  | Toxic | Toxic | Toxic | 
COc1cc(/C=C2\CCC[C@@]3(C2=O)[C@@H](c2cc(OC)cc(OC)c2)C(C)N[C@@]32C(=O)c3cccc4cccc2c34)cc(OC)c1 (stereo partly drawn) | Active | inactive |  |  |  | 
CC1N[C@@]2(C(=O)c3cccc4cccc2c34)[C@@]2(CCC/C(=C\c3ccc(F)cc3)C2=O)[C@H]1c1ccc(F)cc1 (stereo partly drawn) | Active | Active |  |  |  | 
CN1C[C@H](c2ccccc2)[C@]2(CCC/C(=C\c3ccccc3)C2=O)[C@]12C(=O)c1cccc3cccc2c13 |  |  |  |  |  | viability at 48 h, 50 µM [6]: 94%; viability at 48 h, 50 µM [7]: 97.5%; viability at 48 h, 50 µM [8]: 89.5%
COc1ccc(/C=C2\CCC[C@@]3(C2=O)[C@@H](c2ccc(OC)cc2)C(C)N[C@@]32C(=O)c3cccc4cccc2c34)cc1 (stereo partly drawn) | Active | inactive |  |  |  | 
CN1C[C@H](c2ccccc2)[C@]2(CCC/C(=C\c3ccccc3)C2=O)[C@]12C(=O)Nc1ccccc12 |  |  | Non-Toxic | Non-Toxic | Non-Toxic | 
CN1C[C@H](c2ccccc2)[C@H](C(=O)/C=C/c2ccccc2)[C@]12C(=O)Nc1ccc(F)cc12 |  |  | Toxic | Toxic | Toxic | 
CN1C[C@H](c2ccccc2)[C@H](C(=O)/C=C/c2ccccc2)[C@]12C(=O)Nc1ccc(Cl)cc12 |  |  | Toxic | Toxic | Toxic | 
CN1C[C@H](c2ccccc2)[C@]2(COC/C(=C\c3ccccc3)C2=O)[C@]12C(=O)Nc1ccc(F)cc12 |  |  | Non-Toxic | Non-Toxic | Non-Toxic | 
